The values that follow come from patent US20250327032A1, “AGENT FOR AVOIDING IMMUNE RESPONSE OF TRANSGENIC CELLS” (HYPERION DRUG DISCOVERY CO., LTD., priority 2021, published 2025).

A value given as a limit tells only on which side of the number the result lay.

Common to all, as to type: cell-based
Experiment [1] has as its system human mesenchymal stem cells. Nature of the experiment: Introduction of TERT plasmid by lipofection, number of viable cells. The conditions noted are these: JSH-23 1 μM; TERT plasmid DNA 10 pg/cell. Here is the method:
Human mesenchymal stem cells were seeded in a 6-well plate to be about 10,000 cells/cm^2. As a culture solution, αMEM (+10% serum) supplemented with 1 μM of JSH-23 was used. As a control, αMEM (+10% serum) supplemented with 0.1% (v/v) DMSO instead of JSH-23 was used as a culture solution.
A lipofection solution was prepared by adding Lipofectamine RNAiMAX and TERT plasmid DNA to OptiMEM. The amount of plasmid DNA was prepared to be 10 pg/cell.
Next, the lipofection solution was added to the plate seeded with human mesenchymal stem cells, and cultured in a CO2 incubator at 37° C. for 18 hours. After culturing, all the culture solution comprising the lipofection solution was removed and replaced with a new culture solution having the same composition as before the addition of the lipofection solution.
After another 6 hours, the above lipofection solution was newly prepared, added again to the plate seeded with human mesenchymal stem cells, and cultured in a CO2 incubator at 37° C. for 18 hours. These steps were repeated so that the introduction of genes was performed a total of 4 times.
Twenty-four hours after the final introduction of genes, the cells were detached with a cell detachment solution, centrifuged at 600×g for 5 minutes using a centrifuge, to collect the cells. The collected cells were counted using a hemocytometer.

Another experiment relates to human myoblasts. Nature of the experiment: Introduction of GFP viral vector (polybrene method), yield of GFP-positive cells. The conditions noted are these: JSH-23 0.1 μM; GFP viral vector MOI 10, polybrene 5 μg/mL. Here is the method:
Human mesenchymal stem cells were seeded in a 6-well plate to be about 2,000 cells/cm^2. Human myoblasts were seeded in another 6-well plate to be about 2,000 cells/cm^2. As a culture solution, a basal medium for each cell supplemented with JSH-23 was used. JSH-23 was added at 1 μM to the culture solution used for human mesenchymal stem cells, and at 0.1 μM to the culture solution used for human myoblasts. As a control, a basal medium, i.e., αMEM (+10% serum) for human mesenchymal stem cells and MCDB131 (+10% serum) for human myoblasts, to which 0.1% (v/v) DMSO instead of JSH-23 was added was used as a culture solution.
A mixed solution was prepared by mixing GFP viral vector and a polybrene solution. […]
Next, the above mixed solution was added to the plate seeded with human mesenchymal stem cells or human myoblasts, and cultured in a CO2 incubator at 37° C. for 24 hours.
Four days after the addition of the virus-free culture solution, the cells were detached with a cell detachment solution and centrifuged at 600×g for 5 minutes using a centrifuge, to collect the cells. The collected cells were counted using a hemocytometer. Furthermore, the GFP-positive percentage of the collected cells was measured using a flow cytometer. The yield of the number of GFP-positive cells was calculated from the number of cells counted and the GFP-positive percentage. […]

For experiment [2], the system named is human mesenchymal stem cells. Nature of the experiment: Introduction of increased amount of GFP mRNA (20 pg/cell), yield of GFP-positive cells. Particulars: JSH-23 1 μM, versus 20 pg/cell without JSH-23. As to the method:
Human mesenchymal stem cells were seeded in a 6-well plate to be about 10,000 cells/cm^2. As a culture solution, αMEM (+10% serum) supplemented with 1 μM of JSH-23 or αMEM (+10% serum) supplemented with 0.1% (v/v) DMSO instead of JSH-23 was used.
A lipofection solution was prepared by adding Lipofectamine RNAiMAX and fluorescent protein GFP mRNA to OptiMEM. It was prepared so that the amount of mRNA was 10 pg/cell or 20 pg/cell. The prepared lipofection solution was mixed well according to the manufacturer's recommended protocol and allowed to stand at room temperature for about 15 minutes.
Next, a lipofection solution prepared so that the amount of mRNA was 20 pg/cell was added to a plate that used, as a culture solution, αMEM (+10% serum) supplemented with DMSO or JSH-23, respectively. […]
(§1) Twenty-four hours after the final introduction of genes, the cells were detached with a cell detachment solution, centrifuged at 600×g for 5 minutes using a centrifuge, to collect the cells. The collected cells were counted using a hemocytometer. Furthermore, the GFP-positive percentage of the collected cells was measured using a flow cytometer. The yield of the number of GFP-positive cells was calculated from the number of cells counted and the GFP-positive percentage.

Experiment [3] concerns human mesenchymal stem cells. Nature of the experiment: Introduction of GFP mRNA with NFκB inhibitors other than nuclear translocation inhibitors (Example 12), yield of GFP-positive cells. Particulars: JSH-23 1 μM; GFP mRNA 10 pg/cell. Here is the method: Improvement in the yield of transgenic cells when using an NFκB inhibitor other than the NFκB nuclear translocation inhibitor of the present invention was investigated. As the NFκB inhibitors, BAY11 (IKK inhibitor), dexamethasone (IκB degradation inhibitor), and 6-amino-4-(4-phenoxyphenethylamino)quinazoline (p65 acetylation inhibitor) were used to perform introduction of genes. For comparison, introduction of gene was performed under the same conditions using JSH-23, an NFκB nuclear translocation inhibitor, instead of the above-mentioned NFκB inhibitors. The specific procedure is as follows.
Human mesenchymal stem cells were seeded in a 6-well plate to be about 10,000 cells/cm^2. […]
as §1

As for `Cc1ccc(NCCCc2ccccc2)c(N)c1` [JSH-23], in experiment [1], the “number of viable cells compared to the control (control set to 1)” value is on record as not below 1.4 times. Besides, in the experiment on human myoblasts, the “number of GFP-positive cells relative to control” value is listed as “increased”. The “number of GFP-positive cells” value in experiment [2] is listed as “increased”. Also, the “number of GFP-positive (transgenic) cells relative to control (set to 1)” value in experiment [3] was not below 7 times.
